Measured values: patent US20230180804A1, “FLAVOR COMPOSITION, AND FOOD AND BEVERAGE” (TAKASAGO INTERNATIONAL CORPORATION, priority 2020, published 2023)

How the values were obtained:
[1] = Sensory evaluation of p-cresol odor masking in p-cresol-containing citrus-flavored beverage; details: for p-Cresol Odor Intensity: beverage with 50 ppb p-cresol, average score of 7 panelists, scale 0-4; for concentration at which the compound masks the p-cresol odor and does not affect the citrus flavor, lower limit / concentration at which the compound masks the p-cresol odor and does not affect the citrus flavor, upper limit: citrus-flavored beverage with 50 ppb p-cresol
Experimental: To 2 g of lemon flavor obtained by making lemon oil into an essence, purified water was added to adjust the total amount to 1000 ml. To this citrus-flavored beverage, p-cresol adjusted to a concentration of 1% by mass with 95% ethanol was added to 50 ppb in the citrus-flavored beverage. To this p-cresol-containing citrus-flavored beverage, 1-oxacycloheptadecan-7-en-2-one was added at the concentrations presented in Table 1 to confirm the p-cresol odor intensity (masking effect) and the influence on the citrus flavor of each sample.
For the test, seven skilled panelists were selected to perform sensory evaluation. The p-cresol odor intensity of the p-cresol-containing citrus-flavored beverage without added l-oxacycloheptadecan-7-en-2-one was determined as “Rating: 4,” and the p-cresol odor intensity of the p-cresol-free citrus-flavored beverage was determined as “Rating: 0,” and the p-cresol odor intensity (masking effect) of each sample was relatively evaluated according to the following evaluation criteria.
In addition, the influence of the citrus-flavored beverage on the citrus flavor was evaluated absolutely according to the following evaluation criteria for the presence or absence of off- flavor other than p-cresol odor and citrus flavor (Off-Flavor Intensity).
The results are as in Table 1, presenting the average score of the evaluation results for each panelist.

[2] = Sensory evaluation of p-cresol odor masking in p-cresol-containing citrus-flavored confectionery (tablet); details: for p-Cresol Odor Intensity: tablet with 200 ppb p-cresol, average score of 6 panelists, scale 0-4; for concentration at which the compound masks the p-cresol odor and does not affect the citrus flavor, lower limit / concentration at which the compound masks the p-cresol odor and does not affect the citrus flavor, upper limit: citrus-flavored confectionery (tablet) with 200 ppb p-cresol
Experimental: Lemon cold-pressed oil was added to the tablet having the composition presented in Table A at a concentration of 1 % by mass, and medium chain fatty acid triglycerides (MCT) was used to adjust p-cresol to a concentration of 0.1%, which was further added so as to reach 200 ppb in the citrus flavored confectionery. To this p-cresol-containing citrus-flavored confectionery, 1-oxacycloheptadecan-7-en-2-one was added at the concentrations presented in Table 12, and then tableting was performed to confirm the p-cresol odor intensity (masking effect) and the influence on the citrus flavor of each sample.
Six skilled panelists were selected to perform the same sensory evaluation as in Example 1. The results are as in Table 12, presenting the average score of the evaluation results for each panelist.

[3] = Sensory evaluation of p-cresol odor masking in p-cresol-containing grated raw ginger; details: for p-Cresol Odor Intensity: grated ginger with 600 ppb p-cresol, average score of 9 panelists, scale 0-4
Experimental: To commercially available grated raw ginger, p-cresol adjusted to a concentration of 0.1% with 95% ethanol was added to a concentration of 600 ppb in the ginger. To this p-cresol-containing ginger, 1-oxacycloheptadecan-8-en-2-one was added at the concentrations presented in Table 16 to confirm the p-cresol odor intensity (masking effect) and the influence on the ginger flavor of each sample.
Nine skilled panelists were selected to perform the same sensory evaluation as in Example 1. The results are as in Table 16, presenting the average score of the evaluation results for each panelist.

[4] = Sensory evaluation of p-cresol odor masking in p-cresol-containing lemon dressing; details: lemon dressing with 500 ppb p-cresol; for p-Cresol Odor Intensity: average score of 9 panelists, scale 0-4
Experimental: To a commercially available lemon dressing, p-cresol adjusted to a concentration of 0.1% with 95% ethanol was added to 500 ppb in the lemon dressing. To this p-cresol-containing lemon dressing, l-oxacycloheptadecan-8-en-2-one was added at the concentrations presented in Table 18 to confirm the p-cresol odor intensity (masking effect) and the influence on the citrus flavor of each sample.
Nine skilled panelists were selected to perform the same sensory evaluation as in Example 1. The results are as in Table 18, presenting the average score of the evaluation results for each panelist.

[5] = molecular target: T1, olfactory receptor OR9Q2 (Homo sapiens, UniProt Q8NGE9); experiment: OR9Q2 response inhibitory effect for p-cresol, luciferase reporter gene assay; format: cell-based; details: p-cresol 100 µM mixed with various concentrations of compound; cells expressing OR9Q2; ratio of Fold Increase value (FIGS. 1 to 11)
T1 construct: 20 N-terminal amino acid residues of bovine rhodopsin (Rho tag); expressed in transfected cells; host or cells: HEK293T
T1 sequence (Q8NGE9 1-314): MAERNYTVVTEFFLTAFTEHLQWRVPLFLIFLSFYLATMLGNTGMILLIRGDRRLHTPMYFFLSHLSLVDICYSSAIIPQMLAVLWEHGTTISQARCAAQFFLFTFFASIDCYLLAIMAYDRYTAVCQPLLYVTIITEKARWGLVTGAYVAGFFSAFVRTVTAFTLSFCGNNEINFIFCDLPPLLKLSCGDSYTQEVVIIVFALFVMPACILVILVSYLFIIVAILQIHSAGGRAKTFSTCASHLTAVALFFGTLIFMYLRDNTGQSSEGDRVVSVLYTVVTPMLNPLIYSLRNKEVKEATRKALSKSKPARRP
Experimental: The human olfactory receptor gene was obtained by cloning from Human Genomic DNA: Female (Promega) by PCR method based on the sequence information registered in GenBank. The 20 N-terminal amino acid residues of bovine rhodopsin were incorporated into the pME18S vector, and the obtained human olfactory receptor gene was incorporated downstream thereof to obtain a human olfactory receptor gene expression vector.
In 10 µL of Opti-MEM I (gibco), 0.05 µg of human olfactory receptor gene expression vector, 0.01 µg of RTP1S vector, 0.01 µg firefly luciferase vector pGL4.29 (Promega) containing cAMP response element promoter, and 0.005 µg of Renilla luciferase vector pGL4.74 (Promega) containing thymidine kinase promoter were dissolved to prepare a gene solution (for one well). HEK293T cells were seeded at 100 µL each in a 96-well plate (Biocoat, Coming) at the number of cells reaching confluence after 24 hours, and a gene solution was added to each well by the lipofection method according to the usage of Lipofectamine 3000 to introduce genes into the cells, and the cells were cultured at 37° C. in a 5% carbon dioxide atmosphere for 24 hours.
After removing the culture medium, the resultant was prepared with CD293 (gibco) medium ([…] added) so as to have a concentration for measuring the aroma substance to be tested, 50 µL of which was added each and stimulated for 3 hours, and then luciferase activity was measured according to the method of using the Dual-Luciferase Reporter Assay System (Promega). The response intensity of the olfactory receptor polypeptide was expressed as a Fold Increase value obtained by dividing the luciferase activity produced by stimulating the aroma substance by the luciferase activity produced in the test system containing no aroma substance.
p-Cresol at 100 µM was mixed with various concentrations of 1-oxacycloheptadecan-7-en-2-one, 1-oxacycloheptadecan-8-en-2-one, isoambrettolide, pentalide, muscone, civetone, 8-2-decenolactone, cinnamic aldehyde, […], sclareolide, and ethyl maltol, and receptor responses were measured in cells expressing OR9Q2. The ratio of the Fold Increase value in the test in which each compound was mixed was calculated, where the Fold Increase value in the test in none of these compounds was mixed was set to 100. FIGS. 1 to 11 present the results.

[6] = grated raw ginger with 600 ppb p-cresol

O=C1CCCCC=CCCCCCCCCCO1 [1-Oxacycloheptadecan-7-En-2-One, 1-oxacycloheptadecan-7-en-2-one]
p-Cresol Odor Intensity ([1]; 0.01 ppt added): 3.7 points
p-Cresol Odor Intensity ([1]; 0.1 ppt added): 2.7 points
p-Cresol Odor Intensity ([1]; 1 ppb added): 1.3 points
p-Cresol Odor Intensity ([1]; 1 ppt added): 2.4 points
p-Cresol Odor Intensity ([1]; 10 ppb added): 0.9 points
p-Cresol Odor Intensity ([1]; 10 ppt added): 2.0 points
p-Cresol Odor Intensity ([1]; 100 ppb added): 0.7 points
p-Cresol Odor Intensity ([1]; 100 ppt added): 1.7 points
concentration at which the compound masks the p-cresol odor and does not affect the citrus flavor, lower limit [1]: ≥ 0.1 ppt
concentration at which the compound masks the p-cresol odor and does not affect the citrus flavor, upper limit [1]: ≤ 1 ppb
p-Cresol Odor Intensity ([2]; 4 ppb added): 2.5 points
p-Cresol Odor Intensity ([2]; 40 ppb added): 2.0 points
p-Cresol Odor Intensity ([2]; 40 ppt added): 3.2 points
p-Cresol Odor Intensity ([2]; 400 ppb added): 1.3 points
p-Cresol Odor Intensity ([2]; 400 ppt added): 2.7 points
concentration at which the compound masks the p-cresol odor and does not affect the citrus flavor, lower limit [2]: ≥ 400 ppt
concentration at which the compound masks the p-cresol odor and does not affect the citrus flavor, upper limit [2]: ≤ 400 ppb

O=C1CCCCCC=CCCCCCCCCO1 [1-Oxacycloheptadecan-8-En-2-One, 1-oxacycloheptadecan-8-en-2-one]
p-Cresol Odor Intensity ([1]; 0.01 ppt added): 3.6 points
p-Cresol Odor Intensity ([1]; 0.1 ppt added): 2.9 points
p-Cresol Odor Intensity ([1]; 1 ppb added): 1.1 points
p-Cresol Odor Intensity ([1]; 1 ppt added): 2.6 points
p-Cresol Odor Intensity ([1]; 10 ppb added): 0.7 points
p-Cresol Odor Intensity ([1]; 10 ppt added): 1.9 points
p-Cresol Odor Intensity ([1]; 100 ppb added): 0.4 points
p-Cresol Odor Intensity ([1]; 100 ppt added): 1.4 points
concentration at which the compound masks the p-cresol odor and does not affect the citrus flavor, lower limit [1]: ≥ 0.1 ppt
concentration at which the compound masks the p-cresol odor and does not affect the citrus flavor, upper limit [1]: ≤ 1 ppb
p-Cresol Odor Intensity ([2]; 4 ppb added): 2.5 points
p-Cresol Odor Intensity ([2]; 40 ppb added): 1.8 points
p-Cresol Odor Intensity ([2]; 40 ppt added): 3.3 points
p-Cresol Odor Intensity ([2]; 400 ppb added): 1.7 points
p-Cresol Odor Intensity ([2]; 400 ppt added): 3.2 points
concentration at which the compound masks the p-cresol odor and does not affect the citrus flavor, lower limit [2]: ≥ 4 ppb
concentration at which the compound masks the p-cresol odor and does not affect the citrus flavor, upper limit [2]: ≤ 400 ppb
p-Cresol Odor Intensity ([3]; 1 ppb added): 1.7 points
p-Cresol Odor Intensity ([3]; 1 ppt added): 3.2 points
p-Cresol Odor Intensity ([3]; 10 ppb added): 1.4 points
p-Cresol Odor Intensity ([3]; 10 ppt added): 2.4 points
p-Cresol Odor Intensity ([3]; 100 ppt added): 2.3 points
concentration at which the compound masks the p-cresol odor and does not affect the ginger flavor, lower limit [3, 6]: ≥ 10 ppt
concentration at which the compound masks the p-cresol odor and does not affect the ginger flavor, upper limit [3, 6]: ≤ 1 ppb
p-Cresol Odor Intensity ([4]; 1 ppb added): 1.1 points
p-Cresol Odor Intensity ([4]; 1 ppt added): 2.9 points
p-Cresol Odor Intensity ([4]; 10 ppb added): 1.0 points
p-Cresol Odor Intensity ([4]; 10 ppt added): 2.2 points
p-Cresol Odor Intensity ([4]; 100 ppt added): 1.6 points
concentration at which the compound masks the p-cresol odor and does not affect the citrus flavor, lower limit [4]: ≥ 1 ppt
concentration at which the compound masks the p-cresol odor and does not affect the citrus flavor, upper limit [4]: ≤ 10 ppb

O=C/C=C/c1ccccc1 [Cinnamic Aldehyde, cinnamic aldehyde]
p-Cresol Odor Intensity ([1]; 1 ppb added): 2.3 points
p-Cresol Odor Intensity ([1]; 1 ppm added): 1.7 points
p-Cresol Odor Intensity ([1]; 10 ppb added): 2.0 points
p-Cresol Odor Intensity ([1]; 10 ppm added): 0.9 points
p-Cresol Odor Intensity ([1]; 10 ppt added): 3.9 points
p-Cresol Odor Intensity ([1]; 100 ppb added): 2.0 points
p-Cresol Odor Intensity ([1]; 100 ppm added): 0.6 points
p-Cresol Odor Intensity ([1]; 100 ppt added): 2.7 points
concentration at which the compound masks the p-cresol odor and does not affect the citrus flavor, lower limit [1]: ≥ 100 ppt
concentration at which the compound masks the p-cresol odor and does not affect the citrus flavor, upper limit [1]: ≤ 10 ppm
effect of suppressing the response of OR9Q2 to p-cresol [5]: suppressing the response of OR9Q2 to p-cresol in a concentration-dependent manner

O=C1CCCCCCC/C=C\CCCCCCC1 [Civetone, civetone]
p-Cresol Odor Intensity ([1]; 0.001 ppt added): 3.7 points
p-Cresol Odor Intensity ([1]; 0.01 ppt added): 2.7 points
p-Cresol Odor Intensity ([1]; 0.1 ppt added): 2.3 points
p-Cresol Odor Intensity ([1]; 1 ppb added): 1.0 points
p-Cresol Odor Intensity ([1]; 1 ppt added): 1.9 points
p-Cresol Odor Intensity ([1]; 10 ppb added): 0.9 points
p-Cresol Odor Intensity ([1]; 10 ppt added): 1.6 points
p-Cresol Odor Intensity ([1]; 100 ppb added): 0.4 points
p-Cresol Odor Intensity ([1]; 100 ppt added): 1.1 points
concentration at which the compound masks the p-cresol odor and does not affect the citrus flavor, lower limit [1]: ≥ 0.01 ppt
concentration at which the compound masks the p-cresol odor and does not affect the citrus flavor, upper limit [1]: ≤ 1 ppb
effect of suppressing the response of OR9Q2 to p-cresol [5]: suppressing the response of OR9Q2 to p-cresol in a concentration-dependent manner

ambrettolide
effect of suppressing the response of OR9Q2 to p-cresol [5]: suppressing the response of OR9Q2 to p-cresol in a concentration-dependent manner
